Test results published in article PMC10600239, “Selective MCL-1 inhibitor ABBV-467 is efficacious in tumor models but is associated with cardiac troponin increases in patients” (Communications Medicine, 2023).

What was measured:
[1] = test system: Murine p185+ B-ALL cells expressing human MCL-1; test: Engineered murine B-cell ALL lines, cell viability (CellTiter-Glo); assay type: cell-based; settings: Mus musculus, 24 hours, 10% fetal bovine serum
Experimental: Supplementary Table S3: Cellular potency and selectivity of ABBV-467 in
engineered murine B-c ell ALL c ell li nes
B-Cell ALL Lines (EC50, nM)
BCL-XL BCL-2 BCL-w BCL2A1 MCL-1
Murine p185+ B-ALL cells selectiv ely expressing individual human anti–BCL-2 family members (36)
were treated with ABBV-467 for 24 hours in RPMI-1640 media ( Life Technologies, CA) containing
10% fetal bovine serum, 55 μM 2 -mercaptoethanol, 2 mM glutamine, and 1%
penicil lin/ stre ptomycin an d th e i mpact on cell via bility de termi ned usi ng Ce llTiter- Glo. Each EC50 was
calculated from the resulting dose- response curves. Data are presented as the mean of three
independent experiments, except *(n=2). Where an EC50 could not be accurately determined,
activity was define d as >3,000 nM.
ALL, acute lymphoblastic leukemia; BCL- 2, B-cell lymphoma 2; EC 50, half maximal effective

NCI-H929 xenografts = test: NCI-H929 xenograft efficacy (tumor volume, survival); assay type: in vivo; settings: single dose […]
Experimental: All animal studies were conducted in accordance with the guidelines approved by the Institutional Animal Care and Use Committees of AbbVie. The research protocol was approved by In Vivo Pharmacology at AbbVie prior to study initiation but was not publicly registered or disclosed. Female C.B-17 SCID-beige mice (AMO-1, OPM-2, NCI-H929, and OCI-AML2 xenografts) and female NSG mice (MV4-11-Red.Fluc systemic) were purchased from Charles River Laboratories (Wilmington, MA). Animals were housed in a light cycle-controlled room with HEPA filtration at 22 °C. Animals had nesting and climbing cage topper as the primary environmental enrichment. […] All xenograft trials were conducted using 5 to 10 mice per group, and all mice were ear tagged and monitored individually throughout the studies. […] Tumor burden in the systemic MV4-11-Red.Fluc experiment was measured using an IVIS® spectrum from PerkinElmer by taking the total photon flux of the entire dorsal side of an individual mouse. […]
For in vivo studies, maximal tumor growth inhibition (TGI) was calculated as the greatest treatment response using the following equation: Maximal TGI = (1 − mean tumor volume of the treated group/mean tumor volume of the vehicle control group) × 100. […] Data from experiments in vivo were analyzed using the student’s t-test for TGI values and the Mann–Whitney U test for TGD using Excel and GraphPad Prism. […]

hERG = hERG (Homo sapiens, UniProt Q12809); test: hERG current, in vitro; assay type: cell-based; settings: read-out: hERG tail current IC50
Chain of hERG (Q12809 whole entry): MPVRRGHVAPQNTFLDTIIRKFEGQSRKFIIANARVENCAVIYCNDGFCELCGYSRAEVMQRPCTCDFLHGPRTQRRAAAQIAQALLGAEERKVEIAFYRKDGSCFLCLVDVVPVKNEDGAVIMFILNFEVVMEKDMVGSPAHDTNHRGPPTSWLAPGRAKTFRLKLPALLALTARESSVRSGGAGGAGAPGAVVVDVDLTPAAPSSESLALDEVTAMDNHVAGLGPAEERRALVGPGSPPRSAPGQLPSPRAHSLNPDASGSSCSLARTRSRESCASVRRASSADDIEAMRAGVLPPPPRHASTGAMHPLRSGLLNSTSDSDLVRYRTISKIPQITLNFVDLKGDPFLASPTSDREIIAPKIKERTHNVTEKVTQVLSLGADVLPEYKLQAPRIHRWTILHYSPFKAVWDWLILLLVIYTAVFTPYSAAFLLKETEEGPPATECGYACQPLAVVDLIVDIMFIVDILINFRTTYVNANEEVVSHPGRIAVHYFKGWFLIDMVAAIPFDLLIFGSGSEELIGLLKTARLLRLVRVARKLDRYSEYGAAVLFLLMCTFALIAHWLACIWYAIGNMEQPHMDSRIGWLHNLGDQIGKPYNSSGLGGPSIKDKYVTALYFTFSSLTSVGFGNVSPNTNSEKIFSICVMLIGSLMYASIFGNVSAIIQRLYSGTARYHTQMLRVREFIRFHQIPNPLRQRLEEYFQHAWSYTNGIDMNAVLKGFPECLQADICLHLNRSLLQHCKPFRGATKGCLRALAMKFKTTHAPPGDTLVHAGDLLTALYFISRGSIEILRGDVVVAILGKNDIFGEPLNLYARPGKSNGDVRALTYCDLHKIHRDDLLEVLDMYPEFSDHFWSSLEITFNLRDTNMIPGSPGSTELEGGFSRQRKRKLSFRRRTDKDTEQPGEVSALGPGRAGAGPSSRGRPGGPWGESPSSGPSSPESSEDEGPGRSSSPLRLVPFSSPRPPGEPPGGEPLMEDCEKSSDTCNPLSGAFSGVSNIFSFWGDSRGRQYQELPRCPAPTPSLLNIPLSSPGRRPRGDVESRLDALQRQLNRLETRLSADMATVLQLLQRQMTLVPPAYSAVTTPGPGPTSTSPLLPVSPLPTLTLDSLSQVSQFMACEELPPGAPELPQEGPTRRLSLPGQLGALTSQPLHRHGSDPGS
Experimental: Supplementary Table S6: Maj or findings in safety pharmac ology cardiovascular studies c onduc ted with ABBV- […]
Species/Strain Route of Concentrations Sex and N Results
Administration or Doses per Group […]
Anesthetized IV 1, 3, and Male No effects up to a plasma concentration dog 10 m g/ k gN=4 o f 16 .83 µg/mL on […]
aged 8-12 months • Heart rate
• Systemic vascular resistance
At 67 .23 mg/m L, an increase in heart rate and decrease in systemic vascular
Conscious IV 0, 0.3, 1, and Male No effects on blood pressure, heart dog 3 mg/kg N=5–6a rate, or ECG parameters at any dose beagle (plasma concentration of 6.53 µg/mL at (aged 8-12 months 3-m g/ k g do s e )
ECG, electrocardiogram; IC50, half maximal inhibitory concentration; IV, intravenous; QTcV, QT interval correct ed accor ding to the Van de Water formula. No animals or data were excl uded from analysis . Studies were approved by the animal use committee of Abbvie, Lake County, IL. Healthy dogs, as determined by veterinary physical examination and clinical pathology, were selected for study based on availability without explicit randomization. Conscious dog telemetry utiliz ed a Latin square design to randomize for dose order e ff ects. The same 6 dogs received all d oses. Power analysis has shown a group size of 6 can statistically detect an approximately 20 % alteration in measured parameters w ith α =0.0 5. […]

Cc1c(Cl)c2c(Cl)c(C)c1-c1c(-c3ccc(F)cc3)sc3ncnc(c13)O[C@@H](C(=O)O)Cc1cc(ccc1OCc1ccnc(-c3ccc(OC[C@H]4COCCO4)cc3)n1)OC[C@@H](CN1CCN(C)CC1)O2 [ABBV-467]
EC50 [1]: 20.3 nM
mice with tumors remaining below 1000 mm^3 until 250 days post-treatment (NCI-H929 xenografts): 40%
IC50 (hERG): > 20.3 µg/mL
